One test has as its target T1, GST-hPPARγ LBD (Homo sapiens, UniProt P37231).
T1 construct: GST-hPPARγ LBD (amino acids 175-476); made in house; host or cells: E. coli BL21(DE3)
T1 sequence (P37231 175-476 isoform P37231-2): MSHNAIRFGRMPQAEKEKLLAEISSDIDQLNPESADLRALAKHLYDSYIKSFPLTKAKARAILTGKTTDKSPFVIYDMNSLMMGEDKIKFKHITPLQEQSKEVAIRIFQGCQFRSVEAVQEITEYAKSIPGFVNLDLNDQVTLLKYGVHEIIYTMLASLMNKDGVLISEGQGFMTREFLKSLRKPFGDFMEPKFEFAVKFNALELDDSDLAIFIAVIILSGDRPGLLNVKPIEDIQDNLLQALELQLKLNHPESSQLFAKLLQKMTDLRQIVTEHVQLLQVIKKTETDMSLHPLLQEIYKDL
T1 sequence (Q15788 676-700 partner limits assumed): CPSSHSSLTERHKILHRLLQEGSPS
The test can be described thus: PPARγ receptor binding assay (CARLA, TR-FRET functional binding). Format: biochemical. To be noted: TR-FRET coactivator (SRC-1 peptide) recruitment, 3 hours at room temperature. The procedure: (§1) The in vitro functional binding to the PPARα, PPARδ and PPARγ receptors is determined as follows:
(§2) The functional binding assays for the PPARα, PPARδ and PPARγ receptors are a variation of the coactivator-dependent receptor ligand assay (CARLA) (see Krey et al., “Fatty Acids, Eicosanoids, and Hypolipidemic Agents Identified as Ligands of Peroxisome Proliferator-Activated Receptors by Coactivator-Dependent Receptor Ligand Assay”, Molecular Endocrinology, Vol. 11, pp. 779-791 (1997)). The present CARLA assays use a TR-FRET detection method previously reviewed (see Hemmila, “LANCE: Homogeneous Assay Platform for HTS”, J. Biomol. Screening, Vol. 4, pp. 303-307 (1999); Mathis, “HTRF Technology”, J. Biomol. Screening, Vol. 4, pp. 309-313 (1999)). […] This brings the Eu-labeled anti-GST antibody and the strepavidin-labeled APC in close proximity, thereby facilitating fluorescence energy transfer. […] After mixing all components, the reaction mixture stands for 3 hours at room temperature before reading the TR-FRET (Time-Resolved Fluorescence Resonance Energy Transfer) signal on a Wallac Victor 2 plate reader (measuring the ratio of signals at […]). […]

A further test addresses T2, GST-hPPARα LBD (Homo sapiens, UniProt Q07869).
T2 construct: made in house; host or cells: E. coli BL21(DE3)
T2 sequence (Q07869 167-468): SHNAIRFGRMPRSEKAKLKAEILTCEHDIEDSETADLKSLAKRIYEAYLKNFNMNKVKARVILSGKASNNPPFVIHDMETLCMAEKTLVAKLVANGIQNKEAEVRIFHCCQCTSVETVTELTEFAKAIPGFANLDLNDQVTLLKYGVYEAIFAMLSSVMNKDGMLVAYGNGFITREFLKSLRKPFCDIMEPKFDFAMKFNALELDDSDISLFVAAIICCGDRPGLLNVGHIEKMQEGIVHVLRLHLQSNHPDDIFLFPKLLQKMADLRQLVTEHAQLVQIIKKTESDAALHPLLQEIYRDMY
T2 sequence (Q15788 676-700 partner limits assumed): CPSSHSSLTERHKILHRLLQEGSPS
Nature of the test: PPARα receptor binding assay (CARLA, TR-FRET functional binding). Format: biochemical. To be noted: TR-FRET coactivator (SRC-1 peptide) recruitment, 3 hours at room temperature. The procedure: as §1, §2

As usually defined, the EC50 is the concentration at which the effect is half-maximal. Read a low EC50 as higher potency in that assay. Turning to `CCOC(=O)c1cn(CC)nc1NS(=O)(=O)c1ccc(OCc2nc(-c3ccc(C(F)(F)F)cc3)oc2C)cc1` [Example 1, 1-Ethyl-3-{4-[5-methyl-2-(4-trifluoromethyl-phenyl)oxazol-4-ylmethoxy]-benzene-sulfonylamino}-1H-pyrazole-4-carboxylic acid ethyl ester], the EC50 was roughly 3 nM at GST-hPPARγ LBD and roughly 5 nM on GST-hPPARα LBD.
